Results published in PMC8620390, “New Multi-Targeted Antiproliferative Agents: Design and Synthesis of IC261-Based Oxindoles as Potential Tubulin, CK1 and EGFR Inhibitors” (Pharmaceuticals, 2021).

How the values were obtained:
PC-3 = assay: Two-dose antiproliferative screening, SRB assay, PC-3; assay type: cell-based; conditions: triplicates; for inhibition at 1 µM / inhibition at 10 µM: Homo sapiens, PC-3, 72 h; for inhibition at 1 µM: read-out: Growth Inhibition (%) PC-3 1 μM Average; for inhibition at 10 µM: read-out: Growth Inhibition (%) PC-3 10 μM Average; for Growth Inhibition (%) PC-3 10 μM Average: 72 h
Protocol: (§1) MCF-7(breast adenocarcinoma), PC-3 (prostate cancer) and COLO-205 (colorectal cancer) were obtained from Nawah Scientific inc., (Mokatam, Cairo, Egypt). Cells were maintained in Dulbecco’s Modified Eagle’s media (DMEM media) supplemented with […] of streptomycin, 100 units/mL of penicillin and 10% of heat-inactivated fetal bovine serum in humidified, 5% (v/v) CO2 atmosphere at 37 °C.
(§2) Cell viability was assessed by the sulforhodamine B (SRB) assay. Aliquots of cell suspension (5 × 10^3 cells, 100 μL) were transferred into 96 well plates and incubated in complete media for 24 h. Cells were treated with another aliquot media (100 μL) containing compounds 3a–f, 4a–f, 6a–f, 7a–f, 9a–b at concentrations of 1 and 10 μM). After 72 h of drug exposure, cells were fixed by replacing media with trichloroacetic acid (TCA, 10%, 150 μL) and incubated at 4 °C for 1 h. The TCA solution was removed, and the cells were washed five times with distilled water. Aliquots of SRB solution (0.4%w/v, 70 μL) were added and incubated in a dark place at room temperature for 10 min. Plates were washed three times with 1% acetic acid and allowed to air dry overnight. Then, a solution of TRIS base and TRIS HCl (TRIS buffer, 10 mM, 150 μL) was added to dissolve protein bound SRB stain. The absorbance was measured at 540 nm using BMGLABTECH®–FLUOstar omega micro-plate reader (Ortenberg, Germany).

COLO-205 [1] = assay: Two-dose antiproliferative screening, SRB assay, COLO-205; assay type: cell-based, human; conditions: triplicates; for inhibition at 1 µM / inhibition at 10 µM: Homo sapiens, COLO 205, 72 h; for inhibition at 1 µM: read-out: Growth Inhibition (%) COLO-205 1 μM Average; for inhibition at 10 µM: read-out: Growth Inhibition (%) COLO-205 10 μM Average; for Growth Inhibition (%) COLO-205 10 μM Average: 72 h
Protocol: as §1, §2

MCF-7 = assay: Two-dose antiproliferative screening, SRB assay, MCF-7; assay type: cell-based; conditions: Homo sapiens, MCF7, 72 h, triplicates; for inhibition at 1 µM: read-out: Growth Inhibition (%) MCF-7 1 μM Average; for inhibition at 10 µM: read-out: Growth Inhibition (%) MCF-7 10 μM Average
Protocol: as §1, §2

COLO-205 [2] = assay: IC50 against COLO-205, SRB assay; assay type: cell-based; conditions: Homo sapiens, 0.001–100 μM
Protocol: as §2
The same procedures used to screen two-dose anticancer activities were applied in determining IC50 values against COLO-205 using SRB assay. Cells were maintained at Roswell Park Memorial Institute media (RPMI media). The test was performed using 0.001–100 μM of compounds 4a (IC261), 4b, 4d, 4e, 6e and 6f. IC50 values were calculated using the equation for Boltzman sigmoidal concentration–response curve using the nonlinear regression fitting models by GraphPad, Prism version 5 (GraphPad Software Inc., La Jolla, CA, USA).

melting point [°C] | IC50 (COLO-205 [2]) [µM] | SMILES | inhibition at 1 µM (PC-3) [%] | inhibition at 10 µM (PC-3) [%] | inhibition at 1 µM (COLO-205 [1]) [%] | inhibition at 10 µM (COLO-205 [1]) [%] | inhibition at 1 µM (MCF-7) [%] | inhibition at 10 µM (MCF-7) [%] | Growth Inhibition (%) PC-3 10 μM Average (PC-3) [%] | Growth Inhibition (%) COLO-205 10 μM Average (COLO-205 [1]) [%]
 |  | COc1cc(/C=C2/C(=O)Nc3ccccc32)cc(OC)c1OC [Compound 3a, (E)-3-(3,4,5-trimethoxybenzylidene)indolin-2-one] | 1.92 | 20.4 | 1.18 | 4.71 | 1.17 | 3.44 |  | 
 |  | COc1cc(/C=C2/C(=O)Nc3cc(Cl)ccc32)cc(OC)c1OC [Compound 3b, (E)-6-chloro-3-(3,4,5-trimethoxybenzylidene)indolin-2-one] | 7.69 | 39 | 5.7 | 32.6 | 1.14 | 41.2 |  | 
 |  | COc1cc(/C=C2/C(=O)Nc3ccc(Cl)cc32)cc(OC)c1OC [Compound 3c, (E)-5-chloro-3-(3,4,5-trimethoxybenzylidene)indolin-2-one] | 1.42 | 14.3 | 2.86 | 6.41 | 1.06 | 8.56 |  | 
 |  | COc1cc(/C=C2/C(=O)Nc3ccc(F)cc32)cc(OC)c1OC [Compound 3d, (E)-5-fluoro-3-(3,4,5-trimethoxybenzylidene)indolin-2-one] | 2.02 | 1.91 | 7.01 | 11.8 | 0.98 | 3.6 |  | 
 |  | COc1ccc2c(c1)/C(=C\c1cc(OC)c(OC)c(OC)c1)C(=O)N2 [Compound 3e, (E)-5-methoxy-3-(3,4,5-trimethoxybenzylidene)indolin-2-one] | 32.9 | 52 to 72 | 2.34 | 18.6 | 21 | 65.3 | 61.38 | 
 |  | COc1cc(/C=C2/C(=O)Nc3ncccc32)cc(OC)c1OC [Compound 3f, (E)-3-(3,4,5-trimethoxybenzylidene)-1,3-dihydro-2H-pyrrolo[2,3-b] pyridin-2-one] | 1.29 | 3.57 | 1.52 | 9.13 | 0.36 | 4.53 |  | 
244 to 247 |  | COc1cc(OC)c(/C=C2/C(=O)Nc3ccc(Cl)cc32)c(OC)c1 [Compound 4c, (E)-5-chloro-3-(2,4,6-trimethoxybenzylidene)indolin-2-one] | 28.9 | 62.2 | 2.67 | 58 | 17.9 | 65.1 |  | 58.44
 |  | COc1cc(OC)c(/C=C2/C(=O)Nc3ncccc32)c(OC)c1 [Compound 4f, (E)-3-(2,4,6-trimethoxybenzylidene)-1,3-dihydro-2H-pyrrolo[2,3-b] pyridin-2-one] | 23 | 69.1 | 7.64 | 63.8 | 11.5 | 65.8 |  | 
 |  | COc1cc(/C=C2/C(=O)N(Cc3ccccc3)c3ccccc32)cc(OC)c1OC [Compound 6a, (E)-1-Benzyl-3-(3,4,5-trimethoxybenzylidene)indolin-2-one] | 4.3 | 5.03 | 2.46 | 4.97 | 1.74 | 48.5 |  | 
 |  | COc1cc(/C=C2/C(=O)N(Cc3ccc(Cl)cc3)c3ccccc32)cc(OC)c1OC [Compound 6b, (E)-1-(4-Chlorobenzyl)-3-(3,4,5-trimethoxybenzylidene)indolin-2-one] | 1.04 | 28.9 | 3.9 | 45.8 | 1.13 | 32.2 |  | 
 |  | COc1cc(/C=C2/C(=O)N(Cc3ccc(F)cc3)c3ccccc32)cc(OC)c1OC [Compound 6c, (E)-1-(4-Fluorobenzyl)-3-(3,4,5-trimethoxybenzylidene)indolin-2-one] | 0.69 | 8.22 | 4.66 | 13.6 | 5.68 | 25 |  | 
 |  | COc1cc(/C=C2/C(=O)N(Cc3ccccc3)c3cc(Cl)ccc32)cc(OC)c1OC [Compound 6d, (E)-1-benzyl-6-chloro-3-(3,4,5-trimethoxybenzylidene)indolin-2-one] | 4.24 | 7.34 | 2.38 | 8.68 | 0.68 | 48.4 |  | 
 | 15.3 | COc1cc(/C=C2/C(=O)N(Cc3ccc(Cl)cc3)c3cc(Cl)ccc32)cc(OC)c1OC [Compound 6e, (E)-6-chloro-1-(4-chlorobenzyl)-3-(3,4,5-trimethoxybenzylidene) indolin-2-one] | 3.22 | 5.65 | 6.49 | 72.6 | 3.69 | 6 |  | 
 | 10.6 | COc1cc(/C=C2/C(=O)N(Cc3ccc(F)cc3)c3cc(Cl)ccc32)cc(OC)c1OC [Compound 6f, (E)-6-chloro-1-(4-fluorobenzyl)-3-(3,4,5-trimethoxybenzylidene) indolin-2-one] | 0.4 | 23.4 | 3.67 | 63.8 | 3.56 | 29.9 |  | 
 |  | COc1cc(OC)c(/C=C2/C(=O)N(Cc3ccccc3)c3ccccc32)c(OC)c1 [Compound 7a, (E)-1-benzyl-3-(2,4,6-trimethoxybenzylidene)indolin-2-one] | 0.65 | 8.59 | 11.9 | 20 | 0.6 | 15.3 |  | 
 |  | COc1cc(OC)c(/C=C2/C(=O)N(Cc3ccc(Cl)cc3)c3ccccc32)c(OC)c1 [Compound 7b, (E)-1-(4-chlorobenzyl)-3-(2,4,6-trimethoxybenzylidene)indolin-2-one] | 1.05 | 3.15 | 3 | 3.33 | 3.81 | 5.48 |  | 
 |  | COc1cc(OC)c(/C=C2/C(=O)N(Cc3ccc(F)cc3)c3ccccc32)c(OC)c1 [Compound 7c, (E)-1-(4-fluorobenzyl)-3-(2,4,6-trimethoxybenzylidene)indolin-2-one] | 0.89 | 13.8 | 4.66 | 18.3 | 4.08 | 25.9 |  | 
 |  | COc1cc(OC)c(/C=C2/C(=O)N(Cc3ccccc3)c3cc(Cl)ccc32)c(OC)c1 [Compound 7d, (E)-1-benzyl-6-chloro-3-(2,4,6-trimethoxybenzylidene)indolin-2-one] | 1.47 | 19.9 | 2.38 | 15.6 | 0.49 | 40.5 |  | 
 |  | COc1cc(OC)c(/C=C2/C(=O)N(Cc3ccc(Cl)cc3)c3cc(Cl)ccc32)c(OC)c1 [Compound 7e, (E)-6-chloro-1-(4-chlorobenzyl)-3-(2,4,6-trimethoxybenzylidene) indolin-2-one] | 1.77 | 52 to 72 | 3.82 | 22.1 | 1.59 | 46.2 | 51.68 | 
 |  | COc1cc(OC)c(/C=C2/C(=O)N(Cc3ccc(F)cc3)c3cc(Cl)ccc32)c(OC)c1 [Compound 7f, (E)-6-chloro-1-(4-fluorobenzyl)-3-(2,4,6-trimethoxybenzylidene) indolin-2-one] | 0.75 | 7.08 | 3.33 |  | 10.3 | 16 |  | 3.97
